Marks after values point to notes of the source that are not given here.
Assays:
[1] = system: CXCR4^+ cancer cells in SC SW1417 CRC tumor; assay: CXCR4+ cancer cell fraction in tumor tissue along time after single dose (anti-CXCR4 IHC); assay type: in vivo, mouse; settings: 24 h, 48 h, 72 h after equimolecular dose
Procedure: (§1) The SC SW1417 mouse model was used to determine the capacity of the nanoconjugate to induce DNA damage and apoptosis in tumor tissue, as well as the kinetics of CXCR4 expression in the membrane of tumor cells after treatment, regarding the fraction of CXCR4 expressing tumor cells and their intensity, since CXCR4^+ are the target cells for the nanoconjugate. […] The mice had been treated with equimolecular dosages of T22-GFP-H6, free oligo-FdU or Buffer, in which also were determined the levels of CXCR4 expression in tumor tissue at the different time points.

[2] = system: CXCR4^+ SW1417 CRC metastases; assay: Prevention of metastasis protocol, SC+ORT CXCR4+ SW1417 CRC model; assay type: in vivo, NOD/SCID mice
Procedure: Thus, a SC+ORT model, was produced: when SC tumors reached a volume of 700 mm3, mice were sacrificed by cervical dislocation and tumours were excised, discarding the necrotic areas. Three hundred mg of viable tumour tissue was then cut into pieces and disaggregated in a mix of 0.05% trypsin (Invitrogen) and 100 mg/ml DNase (Sigma-Aldrich). The mix was pipetted 30 times, using a 10 ml pipette, and incubated for 10 minutes at 37° C. with shaking. It was then re-pipetted 30 times, using 10 ml, 3 ml and 1 ml pipettes, and re-incubated for 5 minutes at 37° C. with shaking. This re-pipetting step was then repeated. The obtained SW1417 single-cell suspension was filtered through a cell strainer and centrifuged at 1,000 g for 10 minutes before counting the cells. Then 2×10^6 cells, […] resuspended in 50 μl of media, were microinjected in the cecum of each mouse, following the method described above.
The SC+ORT metastatic CRC model developed in NOD/SCID mice was used to evaluate the capacity of the nanoconjugate for metastasis prevention.
(§2) At necropsy, the number and size of visible metastases in the organs where dissemination is expected in colorectal cancer (lymph nodes, liver, lung and peritoneum) were recorded for each mouse in all compared groups. Also the number of metastatic foci that emitted bioluminiscence (derived from the SW1417-luci CRC cells) were counted ex vivo in the target organs for metastasis, using the IVIS® 200-Spectrum (Perkin-Elmer). Samples for histopathological and immunohistochemical analyses were collected and processed. Two independent observers analyzed H&E stained samples to count the number and measure the size of all observed metastatic foci in three (metastasis prevention experiment) or six (regression of metastasis experiment) sections of each organ in each mouse. The images were taken and the measurements were performed with an Olympus microscope with the CellD Olympus software (v3.3). […] The obtained results were used to study a possible correlation between CXCR4^+ CCF and antimetastatic effect at the different sites.
(§3) In order to analyze differences between control and experimental groups of affected mice in metastatic rates at the different organs, Fisher's exact test was used. The Mann-Whitney test was used to compare number and size of metastatic foci in the affected organs among groups. All quantitative values were expressed as mean±SE and the statistical tests were performed using SPSS version 11.0 (IBM, New York, USA). Differences among groups was considered significant at a p<0.05.

[3] = system: subcutaneous CXCR4^+ SW1417 CRC tumor; assay: Induction of DNA double strand breaks and apoptosis in tumor tissue, SC SW1417 model; assay type: in vivo, mouse; settings: for number of apoptotic figures in tumor tissue (Hoechst nuclear condensation or defragmentation): 24 h after injection; for number of DSBs foci in tumors (anti-gH2AX IHC): five hours after treatment
Procedure: as §1

[4] = system: CXCR4^+ SW1417 CRC metastases; assay: Regression of established metastasis protocol, orthotopic CXCR4+ SW1417 CRC model; assay type: in vivo, Swiss nude mice; settings: for LN foci, mean foci number per mouse / Lung foci, mean foci number per mouse: Regression protocol, 6 histology sections, mean + SE; for LN foci, mean foci number per mouse: 20 μg (or equimolecular) q3d x10 i.v.
Procedure: Swiss nude mice were anesthetized with ketamine and xylazine, exteriorizing their cecum by a laparotomy. 2×106 CXCR4^+ SW1417-luci CRC cells (expressing luciferase, to allow ex vivo bioluminescent identification of metastatic foci in affected organs at the end of therapy) were suspended in […] of modified Eagle's medium, and loaded into a sterile micropipette. The cell suspension was slowly injected, under a binocular lens, with an approximate 30° angle and its tip introduced 5 mm into the cecal wall. Afterward, a slight pressure was applied with a cotton stick at approximately 2 mm from the injection point in the direction of the pipette axis. The pipette was pulled out and the area around the injection cleaned with 3% iodine. After injection, the gut was returned to the abdominal cavity and closed with surgical staples.
The orthotopic and metastatic CRC model developed in Swiss nude mice was employed to perform experiments of metastasis regression. […] The experiment was finished when the first animal of the buffer-treated-group had to be euthanized. See below the studied parameters to evaluate the antimetastatic effect.
as §2, §3

[5] = system: CXCR4^+ HeLa human cervical carcinoma cell line; assay: Internalization in CXCR4+ HeLa cells (flow cytometry, AMD3100 competition); assay type: cell-based; settings: pre-treatment, 1:10 molar ratio
Procedure: To assess specificity for CXCR4 receptor mediated internalization, competition studies incubating CXCR4^+ HeLa cells with the CXCR4 antagonist AMD3100 (octahydrochloride hydrate, Sigma-Aldrich) were performed in a 1:10 (Protein:antagonist) molar ratio for 1 h before exposure to the nanoconjugate, as previously described for the T22-GFP-H6.
Nuclei were labeled with Hoechst 33342 (Life Technologies) and plasma membranes CellMask™ Deep Red (Life Technologies).

[6] = system: subcutaneous CXCR4^+ SW1417 CRC tumor; assay: Tumor uptake and tumor cell internalization in subcutaneous CXCR4+ SW1417 CRC model; settings: fluorescence emission
Procedure: (§4) SC model was used to assess tumor uptake and nanoconjugate internalization and in vivo competition studies using co-administration of the CXCR4 antagonist AMD3100.
(§5) Two hours, 5 h and 24 h after the administration, the mouse was euthanized to resect the tumor and register ex vivo the intensity of the green fluorescence emitted by the nanoconjugated that biodistributed to tumor tissue using the IVIS® 200-Spectrum (Perkin Elmer, MA, USA). Following, tumor tissue samples were taken, processed and performed immunohistochemistry (IHC) to determine the presence or absence of the corresponding nanoconjugate into cytosol of tumor cells using an anti-GFP antibody (1:300; Santa-Cruz Biotechnology, CA, USA). […] Apoptosis was assessed determining nuclear condensation with Hoechst staining of tumor tissue sections and counting the number of condensed or defragmented nuclei in five high-power magnification fields in different sections for each tumor using the Olympus DP73 digital camera and the CellD Imaging 3.3 programme (Olympus, Tokyo, Japan).

CXCR4^+ SW1417 CRC cells = assay: Internalization in CXCR4+ SW1417 CRC cells (flow cytometry, AMD3100 competition); assay type: cell-based, human; settings: antagonist 1:10 protein:antagonist molar ratio, 1 h before nanoconjugate
Procedure: CXCR4+ SW1417-luc CRC cells were cultured in modified Eagle's medium (Gibco, Rockville, MD) supplemented with 10% fetal calf serum (Gibco), and incubated at 37° C. and 5% CO2 in a humidified atmosphere. […] Fluorescence emission was measured with a D detector (530/30 nm band pass filter). To assess specificity for CXCR4 receptor-mediated internalization, competition studies were performed incubating CRC SW1417 cells with the CXCR4 antagonist AMD3100 (Sigma Aldrich) in a 1:10 (protein:antagonist) molar ratio for 1 h before exposure to the nanoconjugate at […] for an additional hour.
The cells were washed in phosphate-buffered saline (Sigma-Aldrich). Live cells were recorded by TCS-SP5 confocal laser scanning microscopy (Leica Microsystems, Heidelberg, Germany) using a Plan Apo 63×/1.4 (oil HC×PL APO lambda blue) objective as described. To determine particle localization inside the cell, stacks of 10-20 sections forevery 0.5 μm of cell thickness were collected and three-dimensional models were generated using Imaris version 6.1.0 software (Bitplane, Zurich, Switzerland).

[7] = Nanoparticle size by dynamic light scattering; assay type: physicochemical; settings: Example 2; unit not given
Procedure: The volume and size distribution of the nanoparticles was determined by dynamic light scattering at 633 nm (Zetasizer Nano ZS, Malvern Instruments Limited, Malvern, Worcestershire, UK). Nanoconjugate size was also measured using purified samples, diluted to 0.2 mg/mL and contrasted by evaporation of 1 nm platinum layer in carbon-coated grids, before being visualized in a Hitachi H-7000 transmission electron microscope (TEM), as described33.

[8] = system: subcutaneous CXCR4^+ SW1417 CRC tumor; settings: mouse, in vivo, iv
Procedure: as §4, §5

[9] = Prevention protocol, 3 histology sections, mean + SE

In the case of “5′-(FdU)5-3′ [free oligo-FdU, reference compound]”, the “CXCR4+ CCF in tumor tissue along time” value [1] is reported as “remained similar to its basal level along time”, the “LN foci, mean foci number per mouse” value ([2]; Prevention protocol, 20 μg (or equimolecular) q3d x12 i.v., 3 histology sections, mean + SE) is reported as 3.1 ± 0.4 and the “Liver foci, mean foci number per mouse” value [2, 9] is reported as 1.0 ± 0.3 ^c. The “Lung foci, mean foci number per mouse” value [2, 9] was 4.5 ± 1.6 ^e, the “Peritoneal foci, mean foci number per mouse” value [2, 9] was 2.8 ± 1.0 ^g and the “total or mean foci number at any site (LN, liver, lung, peritoneum)” value ([2]; compared to buffer-treated animals) was “did not reduce”. The “Metastasis Liver [%]” value ([2]; end of prevention experiment) was “[55]^a %”, the “Metastasis Liver, affected/total mice” value ([2]; end of prevention experiment) was 6/11 and the “Metastasis Lung [%]” value ([2]; end of prevention experiment) was “[55]^c %”. The “Metastasis Lung, affected/total mice” value ([2]; end of prevention experiment) was 6/11, the “Metastasis Lymph nodes [%]” value ([2]; end of prevention experiment) was “[100] %” and the “Metastasis Lymph nodes, affected/total mice” value ([2]; end of prevention experiment) was 11/11. The “Metastasis Peritoneal [%]” value ([2]; end of prevention experiment) was “[45] %”, the “Metastasis Peritoneal, affected/total mice” value ([2]; end of prevention experiment) was 5/11 and the “remaining CXCR4^+ CCF in liver, lung and peritoneal metastatic tissue (anti-CXCR4 IHC)” value ([2]; end of prevention experiment) was “does not reduce”. The “Metastasis Size, Liver” value ([2]; mean foci size) was 9.6 μm^2 × 10^−3, the “Metastasis Size, Lung” value ([2]; mean foci size) was 17.9 μm^2 × 10^−3 and the “Metastasis Size, Lymph nodes” value ([2]; mean foci size) was 77.0 μm^2 × 10^−3. The “Metastasis Size, Peritoneal” value ([2]; mean foci size) was 304.8 μm^2 × 10^−3, the “Primary tumor Positive/#Mice” value ([2]; mice bearing a primary tumor out of total mice per group) was 11/11 and the “Primary tumor [%]” value ([2]; percent of mice bearing a primary tumor) was “[100] %”. For the same molecule, the “primary tumor growth by in vivo bioluminescence emission” value ([2]; prevention experiment, compared to buffer-treated mice) was “no significant inhibition”, the “number of apoptotic figures in tumor tissue (Hoechst nuclear condensation or defragmentation)” value [3] was 7.1±0.6 and the “number of DSBs foci in tumors (anti-gH2AX IHC)” value [3] was 13.4±0.7. For the same molecule, the “LN foci, mean foci number per mouse” value [4] was 0.8 ± 0.2, the “Lung foci, mean foci number per mouse” value [4] was 2.0 ± 0.7 ^j,m and the “primary tumor growth by in vivo bioluminescence emission” value ([4]; regression experiment, compared to buffer treated animals) was “significantly inhibited tumor growth”.

With c1cc(CN2CCCNCCNCCCNCC2)ccc1CN1CCCNCCNCCCNCC1 [AMD3100, reference compound] the “block of T22-GFP-H6-FdU internalization in HeLa cells by CXCR4 antagonist pre-treatment” value [5] was “Complete internalization block”, the “block of T22-GFP-H6-FdU tumor uptake by CXCR4 antagonist given prior to the nanoconjugate” value [6] was “completely blocked” and the “block of T22-GFP-H6-FdU internalization by CXCR4 antagonist” value (CXCR4^+ SW1417 CRC cells) was “completely blocked”.

For “T22-GFP-H6: targeting vector: fusion protein nanoparticle of peptide T22 (CXCR4 ligand), green fluorescent protein and a Histidine tail”, the “size determined by dynamic light scattering” value [7] was 13.4+0.11, the “number of apoptotic figures in tumor tissue (Hoechst nuclear condensation or defragmentation)” value [3] was 3.0±0.3 and the “number of DSBs foci in tumors (anti-gH2AX IHC)” value [3] was “undetectable”. The “internalization into CXCR4^+ tumor cell cytosol by anti-GFP immunohistochemistry” value [8] was “internalized”, the “LN foci, mean foci number per mouse” value [4] was 1.1 ± 0.2 ^i and the “Lung foci, mean foci number per mouse” value [4] was 1.7 ± 0.6 ^l.
